{"source": "patent US12281084B2", "about": "“Acetyl-CoA synthetase 2 (ACSS2) inhibitors and methods using same” (The Wistar Institute, priority 2019, dated 2025)", "key": {"[1]": {"system": "BT474 cells", "experiment": "RNA sequencing of BT474 cells under hypoxia and low lipid stress", "type": "cell-based, human", "conditions": "H1, RNA sequencing", "protocol": "ACSS2 affects histone and transcription factor acetylation in the nucleus of cells which then affects gene transcription. It was thus tested if inhibition of ACSS2 affects hypoxia and lipid depletion induced transcriptional stress responses. BT474 cells were incubated in normoxic, nutrient replete conditions (N10) and in hypoxic, low lipid conditions (H1). […] Additional analysis also found significant upregulation of 30 genes related to fatty acid synthesis (FIG. 3D).\nIt was then compared how many of the 1075 hypoxia and low lipid stress responsive genes were affected by siRNA mediated knockdown of ACSS2 (siACSS2) and VY-3-135 treatment."}, "[2]": {"system": "MDA-MB-468 cells", "experiment": "13C2-acetate tracing in MDA-MB-468 cells", "type": "cell-based, human", "conditions": "MDA-MB-468 cells (FIG. 11D)", "protocol": "All metabolomic experiments were performed in serum-like modified Eagle's medium (SMEM). SMEM contains 54 different nutrients that are found in the bloodstream at concentrations that are physiologically relevant to humans. SMEM was supplemented with 10% or 1% fetal bovine serum (FBS; Life Technologies). Cells were grown in normoxia (atmospheric oxygen) or hypoxia (1% oxygen) while being incubated in uniformly labeled ^13C2-acetate (0.100 mM; Cambridge Isotope Laboratories). Lengths of incubation are described in the figure legends. For extraction of metabolites from cultured cells, SMEM medium was aspirated and cells were washed once in ice-cold PBS. Metabolites were extracted by adding a solution of LC-MS grade methanol/acetonitrile/water (5:3:2) to the well. […]\nLC-MS analysis was performed on a Q Exactive Hybrid Quadrupole-Orbitrap HF-X MS (ThermoFisher Scientific) equipped with a HESI II probe and coupled to a Vanquish Horizon UHPLC system (ThermoFisher Scientific). […] Samples were analyzed in full MS scan with polarity switching at scan range 65 to 975 m/z; 120,000 resolution; automated gain control (AGC) target of 1E6; and maximum injection time (max IT) of 100 milliseconds. Identification and quantitation of metabolites was performed using an annotated compound library and TraceFinder 4.1 software. […]"}, "[3]": {"system": "sgACSS2 Brpkp110 tumors", "experiment": "sgACSS2 (Acss2 knockout) Brpkp110 tumor xenograft growth in NSG mice", "type": "in vivo, mouse", "conditions": "tumors lacking ACSS2 expression (FIG. 5F)", "source_text": "CRISPR-Cas9 pools of Brpkp110 and A7C11 were generated using single guide RNAs against exon 1 in mouse Acss2. Cas9 and guide RNAs were introduced into Brpkp110 and A7C11 cell by lentiviral infection. Briefly, HEK293T cells were transfected (Lipofectamine 2000) with psPAX2, pVSV-G, and pLentiCRISPRV2-blast containing a single guide RNA cloned into the BsmBI site (GE Healthcare). Transduced pools of Brkp110 and A7C11 cells were selected using blasticidin S.\nFor BT474 mouse xenograft studies 5-6 week old female NSG […] were anesthetized and one 17β-estradiol 60 day release pellet (Innovative Research of America Cat. No. SE-121) was injected subcutaneously via 10 gauge precision trochar into the lateral side of the neck between the ear and shoulder. 24 hours later 10^5 BT474 luciferase positive cells in 100 μl PBS:matrigel (growth factor reduced) were injected subcutaneously into the hind limb. For A7C11 and Brpkp110 xenografts, 5×10^5 cells in 100 μl PBS:Matrigel (growth factor reduced Corning Cat. No. 356231) were subcutaneously injected into the hindlimb of 5-6 week old female NSG mice […]. […] Tumors were measured thrice weekly via caliper measurement and tumor volume calculated as (L×W^2)/2 (where L is the longer of the 2 measurements). […]"}}, "note": "“Also recorded” adds a separate entry of the source."}
{"smiles": "CCn1c(C(O)(c2ccccc2)c2ccccc2)nc2ccc(C(=O)NC[C@@H](C)O)cc21", "note": "[VY-3-135, (R)-1-ethyl-2-(hydroxydiphenylmethyl)-N-(2-hydroxypropyl)-1H-benzo[d]imidazole-6-carboxamide]", "values": [{"measurement": "transcriptional regulation of genes in response to hypoxia and low lipid stress", "setting": "[1]", "result": "has a minimal effect on the transcriptional regulation of genes in response to hypoxia and low lipid stress"}, {"measurement": "incorporation of 13C2-acetate into UDP-GlcNAc", "setting": "[2]", "result": "able to block incorporation of ^13C2-acetate into UDP-GlcNAc to nearly the levels of unlabeled cells"}, {"measurement": "sgACSS2 Brpkp110 tumor growth", "setting": "[3]", "result": "did not further affect the growth of Brpkp110 sgACSS2 tumors; also recorded: no further effect on tumor growth"}]}
